Reference: the supplement of paper PMC11061612

Assays:
[1] = system: CCRF-CEM (T-Lymphoblastic Leukemia); experiment: Bliss excess, mean over the matrix (fraction); higher = more synergy
Outline: (§1)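 Bliss excess equals the observed combination effect minus the expected value EA + EB − EA·EB, where EA and EB are the effects of each agent alone. Combination Emax is the second-highest inhibition within the matrix. Inhibition was scaled from CellTiter-Glo 2.0 luminescence, with 0 set by vehicle wells and 1 by blank wells, after 72 hours of two-drug dosing of cells plated in 1536-well plates.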

[2] = system: RC-K8 (B-Cell Non-Hodgkin's Lymphoma); experiment: as above
Outline: as §1

NOS-1 (Osteosarcoma) = experiment: as above
Outline: as §1

[3] = system: RO82-W-1 (Thyroid Gland Carcinoma); experiment: as above
Outline: as §1

[4] = system: NCI-H2085 (Non-Small Cell Lung Carcinoma); experiment: as above
Outline: as §1

HOS (Osteosarcoma) [5] = experiment: as above
Outline: as §1

[6] = system: HT-1376 (Bladder Carcinoma); experiment: combination Emax (second highest fraction inhibited in the dose matrix, 72 h); higher = more inhibition; extreme values may be limits of the assay
Outline: as §1

[7] = system: LB831-BLC (Bladder Carcinoma); experiment: as above
Outline: as §1

[8] = system: LNCaP-Clone-FGC (Prostate Carcinoma); experiment: as above
Outline: as §1

KELLY (Neuroblastoma) = experiment: as above
Outline: as §1

[9] = system: OVCA420 (Ovarian Carcinoma); experiment: as above
Outline: as §1

[10] = system: KYSE-520 (Esophageal Squamous Cell Carcinoma); experiment: as above
Outline: as §1

[11] = system: NCI-H2085 (Non-Small Cell Lung Carcinoma); experiment: as above
Outline: as §1

HOS (Osteosarcoma) [12] = experiment: as above
Outline: as §1

42-MG-BA (Glioblastoma) = experiment: as above
Outline: as §1

AGS (Gastric Carcinoma) = experiment: as above
Outline: as §1

[13] = system: LU-135 (Small Cell Lung Carcinoma); experiment: as above
Outline: as §1

[14] = system: ME-1 (Acute Myeloid Leukemia); experiment: as above
Outline: as §1

[15] = system: HO-1-N-1 (Oral Cavity Carcinoma); experiment: as above
Outline: as §1

[16] = system: HuP-T4 (Pancreatic Carcinoma); experiment: as above
Outline: as §1

Row | Compound | Bliss excess [1] | Bliss excess [2] | Bliss excess (NOS-1 (Osteosarcoma)) | Bliss excess [3] | Bliss excess [4] | Bliss excess (HOS (Osteosarcoma) [5]) | combination Emax [6] | combination Emax [7] | combination Emax [8] | combination Emax (KELLY (Neuroblastoma)) | combination Emax [9] | combination Emax [10] | combination Emax [11] | combination Emax (HOS (Osteosarcoma) [12]) | combination Emax (42-MG-BA (Glioblastoma)) | combination Emax (AGS (Gastric Carcinoma)) | combination Emax [13] | combination Emax [14] | combination Emax [15] | combination Emax [16]
1 | CC(=O)c1c(C)c2cnc(Nc3ccc(N4CCNCC4)cn3)nc2n(C2CCCC2)c1=O [Palbociclib] + Cn1cnc2c(F)c(Nc3ccc(Br)cc3Cl)c(C(=O)NOCCO)cc21 [Selumetinib] (first compound max 10 µM, 7x7, partner max 10 µM) | 0.0385 | -0.0203 | -0.0152 | -0.0414 | 0.0018 | 0.0109 | 0.0425 | 0.223 | 0.451 | 0.626 | 0.51 | 0.457 | 0.231 | 0.362 | 0.232 | 0.906 | 0.352 | 0.428 | 0.745 | 0.349
2 | CN(CCO)CC[C@H](CSc1ccccc1)Nc1ccc(S(=O)(=O)NC(=O)c2ccc(N3CCC([C@@H](O)c4ccccc4-c4ccc(Cl)cc4)CC3)cc2)cc1S(=O)(=O)C(F)(F)F [AZD4320] + C1CN(CCC1(C(=O)N[C@@H](CCO)C2=CC=C(C=C2)Cl)N)C3=NC=NC4=C3C=CN4 [Capivasertib] (first compound max 1 µM, 7x7, partner max 3 µM) | 0.0753 | -0.0241 | -0.0386 | -0.0513 | -0.0401 | -0.0467 | 0.74 | 0.338 | 0.97 | 0.229 | 0.0769 | 0.329 | 0.289 | 0.229 | 0.594 | 0.692 | 1 | 1 | 0.216 | 0.0723
3 | COc1nnc2ccc(N3CCC(c4ccc(OCCN5CCN(C)C(=O)[C@H]5C)cc4)CC3)nn12 [AZD5153] + CCN(CCO)CCCOc1ccc2c(Nc3cc(CC(=O)Nc4cccc(F)c4)[nH]n3)ncnc2c1 [AZD2811] (first compound max 1 µM, 7x7, partner max 1 µM) | -0.0407 | 0.0154 | -0.0391 | -0.0483 | -0.0594 | -0.0093 | 0.256 | 0.546 | 0.743 | 0.724 | 0.773 | 0.605 | 0.484 | 0.486 | 0.783 | 0.936 | 1 | 0.434 | 0.815 | 0.542
4 | COc1nnc2ccc(N3CCC(c4ccc(OCCN5CCN(C)C(=O)[C@H]5C)cc4)CC3)nn12 [AZD5153] + CC1(C)CCC(CN2CCN(c3ccc(C(=O)NS(=O)(=O)c4ccc(NCC5CCOCC5)c([N+](=O)[O-])c4)c(Oc4cnc5[nH]ccc5c4)c3)CC2)=C(c2ccc(Cl)cc2)C1 [Venetoclax] (first compound max 1 µM, 7x7, partner max 1 µM) | -0.0742 | -0.0587 | -0.0078 | -0.0712 | -0.0655 | -0.0508 | 0.242 | 0.499 | 0.743 | 0.367 | 0.792 | 0.615 | 0.404 | 0.454 | 0.56 | 0.774 | 0.98 | 1 | 0.682 | 0.485
